target: T1, hTLR9 (Homo sapiens, UniProt Q9NR96); assay: hTLR9 antagonism (SEAP inhibition assay) in HEK-Blue-hTLR9 (HEK293) cells, ODN-2006 stimulated; format: cell-based; settings: 1 μM; SEAP, HEK-Blue-hTLR9 cells
T1 construct: expressed in transfected cells; host or cells: HEK-Blue-hTLR9 cells (HEK293)
T1 sequence (Q9NR96 26-1032): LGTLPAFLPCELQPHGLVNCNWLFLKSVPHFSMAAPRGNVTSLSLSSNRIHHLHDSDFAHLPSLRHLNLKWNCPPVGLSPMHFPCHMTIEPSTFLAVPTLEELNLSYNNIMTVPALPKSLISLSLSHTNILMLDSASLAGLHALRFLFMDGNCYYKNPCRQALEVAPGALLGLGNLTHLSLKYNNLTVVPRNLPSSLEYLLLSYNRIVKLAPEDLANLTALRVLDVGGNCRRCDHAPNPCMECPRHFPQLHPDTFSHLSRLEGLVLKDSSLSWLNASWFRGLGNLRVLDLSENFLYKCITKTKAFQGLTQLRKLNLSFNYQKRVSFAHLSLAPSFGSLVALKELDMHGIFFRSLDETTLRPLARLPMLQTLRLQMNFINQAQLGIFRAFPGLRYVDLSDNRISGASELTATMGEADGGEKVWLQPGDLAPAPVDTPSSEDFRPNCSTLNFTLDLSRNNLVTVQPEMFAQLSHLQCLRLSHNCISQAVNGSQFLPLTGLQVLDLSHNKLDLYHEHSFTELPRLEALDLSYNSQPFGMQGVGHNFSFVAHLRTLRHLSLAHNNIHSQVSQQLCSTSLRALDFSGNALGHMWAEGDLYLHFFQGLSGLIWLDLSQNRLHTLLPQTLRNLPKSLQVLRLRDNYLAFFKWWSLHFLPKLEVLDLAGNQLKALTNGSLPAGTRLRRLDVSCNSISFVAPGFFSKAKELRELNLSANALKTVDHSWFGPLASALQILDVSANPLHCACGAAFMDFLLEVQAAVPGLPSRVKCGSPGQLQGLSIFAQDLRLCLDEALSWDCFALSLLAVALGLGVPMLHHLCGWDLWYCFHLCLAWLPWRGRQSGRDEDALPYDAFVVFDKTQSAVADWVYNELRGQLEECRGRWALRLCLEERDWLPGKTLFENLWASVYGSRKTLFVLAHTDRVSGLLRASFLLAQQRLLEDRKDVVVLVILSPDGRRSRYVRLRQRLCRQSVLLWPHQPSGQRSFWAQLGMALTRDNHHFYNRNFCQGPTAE
Procedure: hTLR9 Antagonism (SEAP Inhibition Assay) in HEK293 Cell Lines
The SEAP reporter gene in HEK-Blue™-hTLR9 cells is placed under the control of the IFN-b minimal promoter fused to five NF-kB and AP-1 binding sites. The stimulation with a TLR9 ligand (ODN-2006) activates NF-kB and AP-1 which induces the production of SEAP. Levels of SEAP are determined with QUANTI-Blue™ detection medium that turns purple/blue in the presence of alkaline phosphatase. Decrease in the levels of SEAP production as indicated by reduction in absorbance at 650 nm is directly co-related with the TLR9 inhibitory activity of the antagonist (NCE).
HEK-Blue™-hTLR9 cells were maintained in DMEM with 10% FBS, 1% Penicillin/Streptomycin/Amphotericin (complete growth medium) and 0.2% Normocin. For the assay, cells were dissociated by washing in 1×PBS and re-suspended in complete DMEM. Cells were seeded at a density of 20000 cells per well; (40 μl per well) in a 384 well assay plate.
5 μl of 10× antagonist (NCE) was added to the cells in triplicates for each concentration. The plate was incubated for half an hour at 37° C. with 5% CO2. 5 μl of agonist (ODN-2006) was added and the plate was incubated overnight for 18 hours at 37° C. with 5% CO2. 5 μl of supernatant was transferred to a 384 well reading plate and to this 45 μl of Quanti-Blue™ detection reagent was added. The plate was then incubated for an hour at 37° C. SEAP activity in the supernatant was indicated by change in the pink color of Quanti-Blue™ detection reagent to purple/blue and the absorbance was read at 650 nm in the end point mode.

In the case of `CC(C)N1CCN(C2CCC(c3nccc4[nH]c(CN5CCOCC5)cc34)CC2)CC1` (stereo not shown) [Example A80, 4-[[4-[4-(4-isopropylpiperazin-1-yl)cyclohexyl]-1H-pyrrolo[3,2-c]pyridin-2-yl]methyl]morpholine], the “hTLR9 inhibitory activity (% at 1 μM)” value is reported as 95.8%.

same assay, conditions: HEK-Blue hTLR9, 1 μM; SEAP, HEK-Blue-hTLR9 cells; read-out: hTLR9 inhibitory activity (% at 1 μM)

`CC(C)N1CCN(c2ccc(-c3nccc4[nH]c(CN5CC(O)C5)cc34)cc2)CC1` [Example A72, 1-[[4-[4-(4-isopropylpiperazin-1-yl)phenyl]-1H-pyrrolo[3,2-c]pyridin-2-yl]methyl]azetidin-3-ol] and `CC(C)N1CCN(c2ccc(-c3nccc4[nH]c(CN5CCC(O)CC5)cc34)cc2)CC1` [Example A12, 1-[[4-[4-(4-isopropylpiperazin-1-yl)phenyl]-1H-pyrrolo[3,2-c]pyridin-2-yl]methyl] piperidin-4-ol] are the same in inhibition at 1 µM: 100% for the first, 100% for the second.

`CC(C)N1CCC(c2ccc(-c3nccc4[nH]c(CN5CCOCC5)cc34)cc2)CC1` [Example A70, 4-[[4-[4-(1-isopropyl-4-piperidyl)phenyl]-1H-pyrrolo[3,2-c]pyridin-2-yl]methyl]morpholine] and `Cc1cc2[nH]c(CN3CCOCC3)cc2c(-c2ccc(C3CCN(C(C)C)CC3)cc2)n1` [Example A51, 4-[[4-[4-(1-isopropyl-4-piperidyl)phenyl]-6-methyl-1H-pyrrolo[3,2-c]pyridin-2-yl]methyl]morpholine] are the same in inhibition at 1 µM: 100% for the first, 100% for the second.

Going from `CC(C)N1CCC(n2cc(-c3nccc4[nH]c(CN5CCOCC5)cc34)cn2)CC1` [Example A54, 4-[[4-[1-(1-isopropyl-4-piperidyl)pyrazol-4-yl]-1H-pyrrolo[3,2-c]pyridin-2-yl]methyl]morpholine] to `CC(C)N1CCN(c2ccc(-c3nccc4[nH]c(CN5CCOCC5)cc34)cn2)CC1` [Example A53, 4-[[4-[6-(4-isopropylpiperazin-1-yl)-3-pyridyl]-1H-pyrrolo[3,2-c]pyridin-2-yl]methyl]morpholine], the inhibition at 1 µM falls from 95.4% to 77%.

Going from `CC(C)N1CCN(c2ccc(-c3nccc4[nH]c(CN5CCOCC5)cc34)cc2)CC1` [Example A1, 4-[[4-[4-(4-isopropylpiperazin-1-yl)phenyl]-1H-pyrrolo[3,2-c]pyridin-2-yl]methyl]morpholine] to `CC(C)N1CCN(c2cccc(-c3nccc4[nH]c(CN5CCOCC5)cc34)c2)CC1` [Example A57, 4-[[4-[3-(4-isopropylpiperazin-1-yl)phenyl]-1H-pyrrolo[3,2-c]pyridin-2-yl]methyl]morpholine], the inhibition at 1 µM falls from 100% to 96.9%.

First: CC(C)N1CCN(c2ccc(-c3nc(C4CC4)cc4[nH]c(CN5CCOCC5)cc34)cc2)CC1 [Example A33, 4-[[6-cyclopropyl-4-[4-(4-isopropylpiperazin-1-yl)phenyl]-1H-pyrrolo[3,2-c]pyridin-2-yl]methyl] morpholine]
Second: Cc1cc2[nH]c(CCN3CCOCC3)cc2c(-c2ccc(N3CCN(C(C)C)CC3)cc2)n1 [Example B3, 4-[2-[4-[4-(4-isopropylpiperazin-1-yl)phenyl]-6-methyl-1H-pyrrolo[3,2-c]pyridin-2-yl]ethyl]morpholine]
The inhibition at 1 µM of the first is lower: 90.4% for the first, 100% for the second.

Going from `Cc1nc(-c2ccc(N3CCN(C)CC3)cc2)c2cc(CN3CCOCC3)[nH]c2c1C` [Example A37, 4-[[6,7-dimethyl-4-[4-(4-methylpiperazin-1-yl)phenyl]-1H-pyrrolo[3,2-c]pyridin-2-yl]methyl] morpholine] to `CCN1CCN(c2ccc(-c3nc(C)c(C)c4[nH]c(CCN5CCOCC5)cc34)cc2)CC1` [Example B8, 4-[2-[4-[4-(4-ethylpiperazin-1-yl)phenyl]-6,7-dimethyl-1H-pyrrolo[3,2-c]pyridin-2-yl]ethyl]morpholine], the inhibition at 1 µM falls from 100% to 93.7%.

Going from `CC(C)N1CC=C(c2ccc(-c3nccc4[nH]c(CN5CCOCC5)cc34)cn2)CC1` [Example A52, 4-[[4-[6-(1-isopropyl-3,6-dihydro-2H-pyridin-4-yl)-3-pyridyl]-1H-pyrrolo[3,2-c]pyridin-2-yl]methyl]morpholine] to `c1cc2[nH]c(CN3CCOCC3)cc2c(-c2ccc(N3CCNCC3)cc2)n1` [Example A42, 4-[[4-(4-(piperazin-1-yl)phenyl)-1H-pyrrolo[3,2-c]pyridin-2-yl]methyl] morpholine], the inhibition at 1 µM rises from 84.5% to 96%.

Compared with `CN1CCN(c2ccc(-c3nccc4[nH]c(CN5CCC(F)CC5)cc34)cc2)CC1` [Example A25, 2-[(4-fluoro-1-piperidyl)methyl]-4-[4-(4-methylpiperazin-1-yl)phenyl] - 1H-pyrrolo[3,2-c]pyridine], `CN1CCC(Oc2ccc(-c3nccc4[nH]c(CN5CCOCC5)cc34)cc2)CC1` [Example A62, 4-[[4-[4-[(1-methyl-4-piperidyl)oxy]phenyl]-1H-pyrrolo[3,2-c]pyridin-2-yl]methyl]morpholine] is higher in inhibition at 1 µM: 95.2% for the first, 98.2% for the second.

Going from `Cc1cc2[nH]c(CCCN3CCCCC3)cc2c(-c2ccc(N3CCN(C(C)C)CC3)cc2)n1` [Example C5, 4-[4-(4-isopropylpiperazin-1-yl)phenyl]-6-methyl-2-[3-(1-piperidyl)propyl]-1H-pyrrolo[3,2-c]pyridine] to `Cc1cc2[nH]c(CCN3CCCCC3)cc2c(-c2ccc(N3CCN(C(C)C)CC3)cc2)n1` [Example B5, 4-[4-(4-isopropylpiperazin-1-yl)phenyl]-6-methyl-2-[2-(1-piperidyl)ethyl]-1H-pyrrolo[3,2-c]pyridine], the inhibition at 1 µM falls from 94.7% to 78%.

First: Cc1cc2[nH]c(CCN3CCOCC3)cc2c(-c2ccc(N3CCN(C)CC3)cc2)n1 [Example B4, 4-[2-[6-methyl-4-[4-(4-methylpiperazin-1-yl)phenyl]-1H-pyrrolo[3,2-c]pyridin-2-yl]ethyl]morpholine]
Second: Cc1nc(-c2ccc(N3CCN(C(C)C)CC3)cc2)c2cc(CCN3CCOCC3)[nH]c2c1C [Example B6, 4-[2-[4-[4-(4-isopropylpiperazin-1-yl)phenyl]-6,7-dimethyl-1H-pyrrolo[3,2-c]pyridin-2-yl]ethyl]morpholine]
The inhibition at 1 µM of the first is higher: 100% for the first, 79.7% for the second.

Going from `CC(C)N1CCN(c2ccc(-c3nccc4[nH]c(CN5CCC6(CC5)CC(O)C6)cc34)cc2)CC1` [Example A13, 7-[[4-[4-(4-isopropylpiperazin-1-yl)phenyl]-1H-pyrrolo[3,2-c]pyridin-2-yl]methyl]-7-azaspiro[3.5] nonan-2-ol] to `Cc1cc2c(cc(CCCN3CCOCC3)n2C)c(-c2ccc(N3CCN(C(C)C)CC3)cc2)n1` [Example C6, 4-[3-[4-[4-(4-isopropylpiperazin-1-yl)phenyl]-1,6-dimethyl-pyrrolo[3,2-c]pyridin-2-yl]propyl]morpholine], the inhibition at 1 µM falls from 100% to 99.1%.

Going from `Cc1cc2c(cc(CCN3CCOCC3)n2C)c(C2CCC(N3CCN(C(C)C)CC3)CC2)n1` (stereo not shown) [Example B26, 4-[2-[4-[4-(4-isopropylpiperazin-1-yl)cyclohexyl]-1,6-dimethyl-pyrrolo[3,2-c]pyridin-2-yl]ethyl]morpholine] to `Cc1cc2c(cc(CCN3CCOCC3)n2C)c(-c2ccc(N3CCN(C(C)C)CC3)c(C(F)(F)F)c2)n1` [Example B18, 4-[2-[4-[4-(4-isopropylpiperazin-1-yl)-3-(trifluoromethyl)phenyl]-1,6-dimethyl-pyrrolo[3,2-c]pyridin-2-yl]ethyl]morpholine], the inhibition at 1 µM rises from 89.9% to 99.3%.

From patent publication US9643967B2, “Pyrrolo[3,2-c]pyridine derivatives as TLR inhibitors” (TAKEDA PHARMACEUTICAL COMPANY LIMITED, priority 2013, dated 2017)
